Assay results taken from ChEMBL document CHEMBL4507297, “Data for DCP probe PF-04457845” (2021).

Tests used:
[1] = target: Mitogen-activated protein kinase 13 (Homo sapiens) (UniProt O15264); details: Compound concentration 1000.0 nM
[2] = target: Rho-associated protein kinase 1 (Homo sapiens) (UniProt Q13464); details: Compound concentration 1000.0 nM
[3] = target: Ribosomal protein S6 kinase alpha-1 (Homo sapiens) (UniProt Q15418); details: Compound concentration 1000.0 nM
[4] = target: Cyclin-dependent kinase 4 (Homo sapiens) (UniProt P11802); details: Compound concentration 1000.0 nM
[5] = target: Dual specificity testis-specific protein kinase 1 (Homo sapiens) (UniProt Q15569); details: Compound concentration 1000.0 nM
[6] = target: Cyclin-dependent kinase-like 2 (Homo sapiens) (UniProt Q92772); details: Compound concentration 1000.0 nM
[7] = target: 5-hydroxytryptamine receptor 1B (Homo sapiens) (UniProt P28222); details: Compound concentration 10.0 uM
[8] = target: Ephrin type-A receptor 8 (Homo sapiens) (UniProt P29322); details: Compound concentration 1000.0 nM
[9] = target: Platelet-derived growth factor receptor beta (Homo sapiens) (UniProt P09619); details: Compound concentration 1000.0 nM
[10] = target: Calcium-dependent protein kinase 1 (Plasmodium falciparum) (UniProt P62344); details: Compound concentration 1000.0 nM
[11] = system: Tyrosine-protein kinase ABL1 (Homo sapiens), P00519 [T315I]; details: Compound concentration 1000.0 nM
[12] = target: Ephrin type-A receptor 7 (Homo sapiens) (UniProt Q15375); details: Compound concentration 1000.0 nM
[13] = target: Wee1-like protein kinase (Homo sapiens) (UniProt P30291); details: Compound concentration 1000.0 nM
[14] = target: Mitogen-activated protein kinase kinase kinase 1 (Homo sapiens) (UniProt Q13233); details: Compound concentration 1000.0 nM
[15] = target: Mitogen-activated protein kinase 10 (Homo sapiens) (UniProt P53779); details: Compound concentration 1000.0 nM
[16] = system: Phosphatidylinositol 4,5-bisphosphate 3-kinase catalytic subunit alpha isoform (Homo sapiens), P42336 [E542K]; details: Compound concentration 1000.0 nM
[17] = target: Cyclin-dependent kinase 7 (Homo sapiens) (UniProt P50613); details: Compound concentration 1000.0 nM
Sequence of Cyclin-dependent kinase 7 (Homo sapiens) (P50613 whole entry): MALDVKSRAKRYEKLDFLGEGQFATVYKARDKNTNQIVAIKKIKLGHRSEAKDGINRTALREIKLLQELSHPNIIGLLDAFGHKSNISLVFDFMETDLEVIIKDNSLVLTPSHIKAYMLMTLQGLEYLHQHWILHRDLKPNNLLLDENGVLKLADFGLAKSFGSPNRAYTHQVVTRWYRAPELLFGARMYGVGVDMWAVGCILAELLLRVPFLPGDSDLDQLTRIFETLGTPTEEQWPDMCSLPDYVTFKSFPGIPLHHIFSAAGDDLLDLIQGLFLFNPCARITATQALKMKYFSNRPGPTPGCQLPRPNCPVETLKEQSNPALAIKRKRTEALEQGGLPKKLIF

[18] = system: Receptor-type tyrosine-protein kinase FLT3 (Homo sapiens), P36888 [N841I]; details: Compound concentration 1000.0 nM
[19] = target: Sigma non-opioid intracellular receptor 1 (Homo sapiens, UniProt Q99720); details: Compound concentration 10.0 uM
Sequence of Sigma non-opioid intracellular receptor 1 (Q99720 whole entry): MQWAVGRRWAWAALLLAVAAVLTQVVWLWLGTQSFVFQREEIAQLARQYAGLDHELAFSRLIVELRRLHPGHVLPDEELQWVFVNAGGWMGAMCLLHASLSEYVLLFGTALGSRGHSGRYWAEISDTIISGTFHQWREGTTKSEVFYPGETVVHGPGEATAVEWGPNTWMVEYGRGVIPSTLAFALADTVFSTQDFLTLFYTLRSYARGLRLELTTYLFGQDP

[20] = system: Epidermal growth factor receptor (Homo sapiens), P00533 [UNDEFINED MUTATION]; details: Compound concentration 1000.0 nM
Sequence of Epidermal growth factor receptor (Homo sapiens), P00533 [UNDEFINED MUTATION] (P00533 whole entry, looked up, change not shown): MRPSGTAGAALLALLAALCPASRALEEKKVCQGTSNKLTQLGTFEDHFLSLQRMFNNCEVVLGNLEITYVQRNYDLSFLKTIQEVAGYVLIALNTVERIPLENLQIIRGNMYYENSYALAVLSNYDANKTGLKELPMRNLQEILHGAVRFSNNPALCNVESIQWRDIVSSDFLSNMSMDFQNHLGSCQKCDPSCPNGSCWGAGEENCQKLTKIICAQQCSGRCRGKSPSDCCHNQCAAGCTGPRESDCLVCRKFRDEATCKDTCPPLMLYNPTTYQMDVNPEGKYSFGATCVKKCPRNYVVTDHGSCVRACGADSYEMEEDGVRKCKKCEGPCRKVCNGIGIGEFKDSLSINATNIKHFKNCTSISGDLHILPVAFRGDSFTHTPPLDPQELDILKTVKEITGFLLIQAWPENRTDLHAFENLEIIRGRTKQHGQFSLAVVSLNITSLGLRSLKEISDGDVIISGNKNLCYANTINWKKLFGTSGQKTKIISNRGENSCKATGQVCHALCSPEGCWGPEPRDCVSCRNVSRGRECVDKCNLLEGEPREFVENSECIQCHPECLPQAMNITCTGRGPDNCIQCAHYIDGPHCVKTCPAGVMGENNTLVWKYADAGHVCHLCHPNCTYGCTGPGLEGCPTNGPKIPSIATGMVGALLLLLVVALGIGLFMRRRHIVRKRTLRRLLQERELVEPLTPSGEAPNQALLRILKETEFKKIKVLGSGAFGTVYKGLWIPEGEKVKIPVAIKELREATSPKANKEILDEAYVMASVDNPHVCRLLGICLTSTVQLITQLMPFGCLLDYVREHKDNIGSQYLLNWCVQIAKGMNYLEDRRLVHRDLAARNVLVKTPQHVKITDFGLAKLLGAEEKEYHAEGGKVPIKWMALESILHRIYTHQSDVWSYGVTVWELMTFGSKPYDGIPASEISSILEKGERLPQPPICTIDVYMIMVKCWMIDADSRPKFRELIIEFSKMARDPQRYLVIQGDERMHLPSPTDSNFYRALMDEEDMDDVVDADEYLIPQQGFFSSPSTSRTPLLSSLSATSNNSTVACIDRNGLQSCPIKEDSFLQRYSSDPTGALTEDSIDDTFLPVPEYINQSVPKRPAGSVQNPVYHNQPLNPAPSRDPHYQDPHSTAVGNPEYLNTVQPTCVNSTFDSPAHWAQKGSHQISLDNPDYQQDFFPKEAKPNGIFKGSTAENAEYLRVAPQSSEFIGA

[21] = target: Serine/threonine-protein kinase RIO2 (Homo sapiens) (UniProt Q9BVS4); details: Compound concentration 1000.0 nM
[22] = target: Serine/threonine-protein kinase Nek11 (Homo sapiens) (UniProt Q8NG66); details: Compound concentration 1000.0 nM
[23] = target: Serine/threonine-protein kinase NLK (Homo sapiens) (UniProt Q9UBE8); details: Compound concentration 1000.0 nM
[24] = target: Serine/threonine-protein kinase Chk2 (Homo sapiens) (UniProt O96017); details: Compound concentration 1000.0 nM
[25] = target: Tyrosine-protein kinase receptor UFO (Homo sapiens) (UniProt P30530); details: Compound concentration 1000.0 nM
[26] = target: Alpha-2C adrenergic receptor (Homo sapiens) (UniProt P18825); details: Compound concentration 10.0 uM
[27] = target: Calcium/calmodulin-dependent protein kinase type 1G (Homo sapiens) (UniProt Q96NX5); details: Compound concentration 1000.0 nM
[28] = target: Mitogen-activated protein kinase 3 (Homo sapiens) (UniProt P27361); details: Compound concentration 1000.0 nM
[29] = target: Maternal embryonic leucine zipper kinase (Homo sapiens) (UniProt Q14680); details: Compound concentration 1000.0 nM
Sequence of Maternal embryonic leucine zipper kinase (Homo sapiens) (Q14680 whole entry, looked up): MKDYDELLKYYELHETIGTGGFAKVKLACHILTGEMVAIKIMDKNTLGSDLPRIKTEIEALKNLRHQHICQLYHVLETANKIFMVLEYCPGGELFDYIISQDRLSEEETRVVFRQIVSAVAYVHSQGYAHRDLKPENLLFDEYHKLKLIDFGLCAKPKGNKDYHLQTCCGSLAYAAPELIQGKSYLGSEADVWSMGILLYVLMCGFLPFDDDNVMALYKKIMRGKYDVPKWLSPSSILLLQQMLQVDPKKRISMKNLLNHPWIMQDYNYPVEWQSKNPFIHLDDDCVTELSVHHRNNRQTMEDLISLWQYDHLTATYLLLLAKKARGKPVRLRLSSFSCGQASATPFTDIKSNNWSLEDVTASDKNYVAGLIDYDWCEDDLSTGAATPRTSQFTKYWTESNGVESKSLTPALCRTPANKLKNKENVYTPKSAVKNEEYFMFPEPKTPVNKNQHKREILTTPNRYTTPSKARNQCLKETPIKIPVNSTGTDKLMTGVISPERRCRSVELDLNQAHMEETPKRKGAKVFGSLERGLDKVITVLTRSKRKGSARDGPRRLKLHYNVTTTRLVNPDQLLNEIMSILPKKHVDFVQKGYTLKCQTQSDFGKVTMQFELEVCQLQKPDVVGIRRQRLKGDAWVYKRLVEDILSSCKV

[30] = target: Ephrin type-A receptor 5 (Homo sapiens) (UniProt P54756); details: Compound concentration 1000.0 nM
[31] = target: Phosphatidylinositol 4,5-bisphosphate 3-kinase catalytic subunit beta isoform (Homo sapiens) (UniProt P42338); details: Compound concentration 1000.0 nM
Sequence of Phosphatidylinositol 4,5-bisphosphate 3-kinase catalytic subunit beta isoform (Homo sapiens) (P42338 whole entry, looked up, canonical isoform): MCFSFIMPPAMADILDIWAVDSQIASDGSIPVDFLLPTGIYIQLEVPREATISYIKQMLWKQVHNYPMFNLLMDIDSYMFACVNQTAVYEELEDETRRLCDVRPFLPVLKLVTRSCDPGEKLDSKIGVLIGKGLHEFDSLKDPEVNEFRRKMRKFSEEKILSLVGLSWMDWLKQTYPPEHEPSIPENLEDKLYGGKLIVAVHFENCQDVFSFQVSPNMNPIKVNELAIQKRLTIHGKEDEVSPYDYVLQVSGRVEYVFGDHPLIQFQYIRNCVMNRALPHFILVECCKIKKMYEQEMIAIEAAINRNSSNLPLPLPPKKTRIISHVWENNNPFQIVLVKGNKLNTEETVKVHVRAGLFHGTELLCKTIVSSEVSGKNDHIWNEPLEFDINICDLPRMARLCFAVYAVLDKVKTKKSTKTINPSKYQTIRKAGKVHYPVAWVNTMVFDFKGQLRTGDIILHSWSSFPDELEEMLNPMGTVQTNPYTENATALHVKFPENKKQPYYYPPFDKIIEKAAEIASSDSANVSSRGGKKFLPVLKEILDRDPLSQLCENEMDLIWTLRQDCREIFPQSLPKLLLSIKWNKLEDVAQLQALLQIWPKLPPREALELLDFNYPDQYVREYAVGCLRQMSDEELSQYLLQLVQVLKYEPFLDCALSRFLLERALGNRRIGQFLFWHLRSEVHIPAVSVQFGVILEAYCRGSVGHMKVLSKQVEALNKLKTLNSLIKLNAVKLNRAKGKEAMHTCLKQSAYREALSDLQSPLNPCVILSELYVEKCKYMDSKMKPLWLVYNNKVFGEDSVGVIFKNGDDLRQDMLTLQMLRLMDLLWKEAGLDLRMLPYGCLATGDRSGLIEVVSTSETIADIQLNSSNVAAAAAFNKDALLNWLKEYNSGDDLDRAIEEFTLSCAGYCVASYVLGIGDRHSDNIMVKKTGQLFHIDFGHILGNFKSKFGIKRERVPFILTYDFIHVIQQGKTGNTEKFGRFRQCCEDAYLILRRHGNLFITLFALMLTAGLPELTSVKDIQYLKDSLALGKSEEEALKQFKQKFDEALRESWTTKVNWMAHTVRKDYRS

[32] = system: Epidermal growth factor receptor (Homo sapiens), P00533 [UNDEFINED MUTATION]; details: Compound concentration 1000.0 nM; remark: listed apart in the source
[33] = target: Ribosomal protein S6 kinase alpha-2 (Homo sapiens) (UniProt Q15349); details: Compound concentration 1000.0 nM
[34] = target: Serine/threonine-protein kinase 33 (Homo sapiens) (UniProt Q9BYT3); details: Compound concentration 1000.0 nM
[35] = target: Tyrosine-protein kinase CSK (Homo sapiens) (UniProt P41240); details: Compound concentration 1000.0 nM
Sequence of Tyrosine-protein kinase CSK (Homo sapiens) (P41240 2-450 limits assumed): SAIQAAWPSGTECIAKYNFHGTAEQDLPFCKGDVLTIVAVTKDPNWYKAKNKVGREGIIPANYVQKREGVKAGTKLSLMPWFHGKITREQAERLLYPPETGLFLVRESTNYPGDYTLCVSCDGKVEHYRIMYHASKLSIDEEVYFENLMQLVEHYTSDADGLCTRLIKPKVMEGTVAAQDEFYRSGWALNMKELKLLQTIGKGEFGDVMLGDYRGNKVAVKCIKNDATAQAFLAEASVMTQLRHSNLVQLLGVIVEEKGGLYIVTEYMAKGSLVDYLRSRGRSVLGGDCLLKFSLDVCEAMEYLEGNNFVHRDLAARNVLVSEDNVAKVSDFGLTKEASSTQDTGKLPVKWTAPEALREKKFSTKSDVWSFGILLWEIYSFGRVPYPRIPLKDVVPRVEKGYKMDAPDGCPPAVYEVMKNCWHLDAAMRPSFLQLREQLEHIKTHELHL

[36] = target: Leukocyte tyrosine kinase receptor (Homo sapiens) (UniProt P29376); details: Compound concentration 1000.0 nM
[37] = target: Rho-associated protein kinase 2 (Homo sapiens) (UniProt O75116); details: Compound concentration 1000.0 nM
[38] = target: Cyclin-dependent kinase-like 5 (Homo sapiens) (UniProt O76039); details: Compound concentration 1000.0 nM
[39] = target: Calcium/calmodulin-dependent protein kinase kinase 1 (Homo sapiens) (UniProt Q8N5S9); details: Compound concentration 1000.0 nM
Sequence of Calcium/calmodulin-dependent protein kinase kinase 1 (Homo sapiens) (Q8N5S9 whole entry, looked up): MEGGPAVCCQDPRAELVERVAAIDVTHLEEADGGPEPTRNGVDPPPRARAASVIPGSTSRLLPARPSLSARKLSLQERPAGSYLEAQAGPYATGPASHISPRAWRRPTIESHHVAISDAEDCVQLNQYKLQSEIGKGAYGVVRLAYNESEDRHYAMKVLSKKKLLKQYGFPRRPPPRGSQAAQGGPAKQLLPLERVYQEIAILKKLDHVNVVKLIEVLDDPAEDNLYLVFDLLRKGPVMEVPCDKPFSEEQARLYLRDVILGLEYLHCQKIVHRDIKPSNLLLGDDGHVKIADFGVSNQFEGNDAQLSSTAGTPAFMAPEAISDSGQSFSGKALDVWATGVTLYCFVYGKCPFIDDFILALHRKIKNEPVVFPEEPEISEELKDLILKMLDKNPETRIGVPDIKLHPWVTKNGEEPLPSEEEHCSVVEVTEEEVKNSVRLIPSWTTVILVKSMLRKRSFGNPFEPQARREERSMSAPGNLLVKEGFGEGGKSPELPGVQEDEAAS

[40] = target: Tyrosine-protein kinase TXK (Homo sapiens) (UniProt P42681); details: Compound concentration 1000.0 nM
[41] = target: Aurora kinase C (Homo sapiens) (UniProt Q9UQB9); details: Compound concentration 1000.0 nM
[42] = target: MAP/microtubule affinity-regulating kinase 3 (Homo sapiens) (UniProt P27448); details: Compound concentration 1000.0 nM
[43] = target: Serine/threonine-protein kinase D1 (Homo sapiens) (UniProt Q15139); details: Compound concentration 1000.0 nM
[44] = target: Ribosomal protein S6 kinase beta-1 (Homo sapiens) (UniProt P23443); details: Compound concentration 1000.0 nM
Sequence of Ribosomal protein S6 kinase beta-1 (Homo sapiens) (P23443 whole entry, looked up): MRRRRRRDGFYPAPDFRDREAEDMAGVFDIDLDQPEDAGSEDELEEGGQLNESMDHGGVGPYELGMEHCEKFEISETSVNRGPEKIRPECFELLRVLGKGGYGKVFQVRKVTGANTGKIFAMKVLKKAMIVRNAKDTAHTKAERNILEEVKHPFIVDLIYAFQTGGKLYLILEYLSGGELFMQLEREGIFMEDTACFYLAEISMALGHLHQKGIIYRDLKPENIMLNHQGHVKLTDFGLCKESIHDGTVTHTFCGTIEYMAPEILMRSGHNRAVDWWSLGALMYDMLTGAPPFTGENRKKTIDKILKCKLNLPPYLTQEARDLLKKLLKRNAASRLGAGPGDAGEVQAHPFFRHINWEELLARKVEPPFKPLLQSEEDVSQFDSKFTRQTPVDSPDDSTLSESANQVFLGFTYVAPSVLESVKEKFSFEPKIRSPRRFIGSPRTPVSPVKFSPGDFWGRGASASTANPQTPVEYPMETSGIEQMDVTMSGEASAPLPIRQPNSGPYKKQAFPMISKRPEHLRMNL

[45] = target: Calcium/calmodulin-dependent protein kinase kinase 2 (Homo sapiens) (UniProt Q96RR4); details: Compound concentration 1000.0 nM

## O=C(Nc1cccnn1)N1CCC(=Cc2cccc(Oc3ccc(C(F)(F)F)cn3)c2)CC1
[1]
  residual activity: 86%
[2]
  residual activity: 100%
[3]
  residual activity: 100%
[4]
  residual activity: 100%
[5]
  residual activity: 91%
[6]
  residual activity: 92%
[7]
  inhibition: 24.4%
[8]
  residual activity: 100%
[9]
  residual activity: 97%
[10]
  residual activity: 93%
[11]
  residual activity: 76%
[12]
  residual activity: 95%
[13]
  residual activity: 97%
[14]
  residual activity: 100%
[15]
  residual activity: 100%
[16]
  residual activity: 65%
[17]
  residual activity: 100%
[18]
  residual activity: 69%
[19]
  inhibition: 88.5%
[20]
  residual activity: 69%
[21]
  residual activity: 100%
[22]
  residual activity: 100%
[23]
  residual activity: 100%
[24]
  residual activity: 94%
[25]
  residual activity: 100%
[26]
  inhibition: 79.3%
[27]
  residual activity: 95%
[28]
  residual activity: 100%
[29]
  residual activity: 100%
[30]
  residual activity: 98%
[31]
  residual activity: 100%
[32]
  residual activity: 100%
[33]
  residual activity: 100%
[34]
  residual activity: 100%
[35]
  residual activity: 100%
[36]
  residual activity: 74%
[37]
  residual activity: 100%
[38]
  residual activity: 100%
[39]
  residual activity: 92%
[40]
  residual activity: 100%
[41]
  residual activity: 100%
[42]
  residual activity: 89%
[43]
  residual activity: 100%
[44]
  residual activity: 100%
[45]
  residual activity: 73%

## O=C(Nc1cccnn1)N1CC(C/C=C/c2cncc(Oc3ccc(C(F)(F)F)cn3)n2)C1
[1]
  residual activity: 100%
[2]
  residual activity: 82%
[3]
  residual activity: 92%
[4]
  residual activity: 86%
[5]
  residual activity: 100%
[6]
  residual activity: 100%
[7]
  inhibition: 4.8%
[8]
  residual activity: 100%
[9]
  residual activity: 81%
[10]
  residual activity: 99%
[11]
  residual activity: 80%
[12]
  residual activity: 100%
[13]
  residual activity: 100%
[14]
  residual activity: 66%
[15]
  residual activity: 77%
[16]
  residual activity: 88%
[17]
  residual activity: 81%
[18]
  residual activity: 62%
[19]
  inhibition: 32.2%
[20]
  residual activity: 100%
[21]
  residual activity: 77%
[22]
  residual activity: 100%
[23]
  residual activity: 100%
[24]
  residual activity: 100%
[25]
  residual activity: 100%
[26]
  inhibition: 0.34%
[27]
  residual activity: 100%
[28]
  residual activity: 99%
[29]
  residual activity: 100%
[30]
  residual activity: 85%
[31]
  residual activity: 79%
[32]
  residual activity: 95%
[33]
  residual activity: 100%
[34]
  residual activity: 100%
[35]
  residual activity: 100%
[36]
  residual activity: 100%
[37]
  residual activity: 90%
[38]
  residual activity: 73%
[39]
  residual activity: 100%
[40]
  residual activity: 100%
[41]
  residual activity: 100%
[42]
  residual activity: 100%
[43]
  residual activity: 100%
[44]
  residual activity: 71%
[45]
  residual activity: 100%
